Data taken from US9808512B2, “Anti-cell proliferative compounds and methods of use” (KALOS Therapeutics, priority 2007, dated 2017).
“And” between values parts separate entries of the source, which are not always exact repeats. Equal values may be shown once. “Also recorded” adds a separate entry of the source.

Experiments:
[1] = test system: Human Pancreatic Adenocarcinoma Cells (HPAC); assay: HPAC cell viability, Calbiochem Rapid Cell Proliferation Kit, optical density at 450 nm; type: cell-based; settings: 48 hours; for Optical Densities in 96_Well Plate, Average: average of 5 replicate wells; for Optical Densities in 96_Well Plate: single replicate wells
Method: Human Pancreatic Adenocarcinoma Cells (HPAC) cells were obtained from ATCC and propagated in Dulbecco's modified Eagle's medium and Ham's F12 medium (DME-F12) (1:1) containing 2.5 mM glutamine, […], 5 ug/mL transferrin, 1 ng/mL EGF (epidermal growth factor), plus 5% FBS (fetal bovine serum). Cell cultures were incubated at 37° C., 5% CO2 in a 100% humidity atmosphere. The cells were routinely brought to confluence in T-flasks, rinsed with phosphate buffered saline (PBS), and treated with trypsin for 5 min at room temp. The trypsinized cells were rinsed from the plate with 10 mL medium and counted. Viability at subculturing was generally ≧95%.
Approximately 10,000 cells in 100 uL of medium were placed in each well of a 96-well plate and incubated over night. Peptides having the following sequences were used: Arg-15-Cys (RSSCAGAALSPLGAC; SEQ. ID NO:122); Pro-15-Val (PNEEAGAALSPLPEV; SEQ. ID NO:121); Ala-8-Leu (AGAALSPL; SEQ. ID NO:85); C-ANP 4-23 ([…]; SEQ. ID NO:124) and, VDL ([…]; SEQ. ID NO:125). The peptides were dissolved in PBS and sterile filtered. The peptides were diluted into the cell culture medium to the following final concentrations: 1, 0.3, 0.1, 0.03, and 0.01 uM. Each peptide was tested in 5 replicate wells. The cultures were incubated for an additional 48 hours at 37° C.
The viability of the cells was determined using a Calbiochem Rapid Cell Proliferation Kit (catalog number QIA127). Ten uL of Calbiochem color reagent was added to each well and incubated for an additional 1.5 hours at 37° C. Optical densities were read at 450 nm using a Molecular Devices ThermoMax microplate reader. The plate template is shown in Table I (unlabeled wells contained cells but no peptide and were used as blanks). Results are presented in Table I, and are graphically illustrated in FIGS. 1 and 2.

[2] = target: T1, NPRA (Homo sapiens, UniProt P16066); settings: cited from earlier work
T1 sequence (P16066 33-1061): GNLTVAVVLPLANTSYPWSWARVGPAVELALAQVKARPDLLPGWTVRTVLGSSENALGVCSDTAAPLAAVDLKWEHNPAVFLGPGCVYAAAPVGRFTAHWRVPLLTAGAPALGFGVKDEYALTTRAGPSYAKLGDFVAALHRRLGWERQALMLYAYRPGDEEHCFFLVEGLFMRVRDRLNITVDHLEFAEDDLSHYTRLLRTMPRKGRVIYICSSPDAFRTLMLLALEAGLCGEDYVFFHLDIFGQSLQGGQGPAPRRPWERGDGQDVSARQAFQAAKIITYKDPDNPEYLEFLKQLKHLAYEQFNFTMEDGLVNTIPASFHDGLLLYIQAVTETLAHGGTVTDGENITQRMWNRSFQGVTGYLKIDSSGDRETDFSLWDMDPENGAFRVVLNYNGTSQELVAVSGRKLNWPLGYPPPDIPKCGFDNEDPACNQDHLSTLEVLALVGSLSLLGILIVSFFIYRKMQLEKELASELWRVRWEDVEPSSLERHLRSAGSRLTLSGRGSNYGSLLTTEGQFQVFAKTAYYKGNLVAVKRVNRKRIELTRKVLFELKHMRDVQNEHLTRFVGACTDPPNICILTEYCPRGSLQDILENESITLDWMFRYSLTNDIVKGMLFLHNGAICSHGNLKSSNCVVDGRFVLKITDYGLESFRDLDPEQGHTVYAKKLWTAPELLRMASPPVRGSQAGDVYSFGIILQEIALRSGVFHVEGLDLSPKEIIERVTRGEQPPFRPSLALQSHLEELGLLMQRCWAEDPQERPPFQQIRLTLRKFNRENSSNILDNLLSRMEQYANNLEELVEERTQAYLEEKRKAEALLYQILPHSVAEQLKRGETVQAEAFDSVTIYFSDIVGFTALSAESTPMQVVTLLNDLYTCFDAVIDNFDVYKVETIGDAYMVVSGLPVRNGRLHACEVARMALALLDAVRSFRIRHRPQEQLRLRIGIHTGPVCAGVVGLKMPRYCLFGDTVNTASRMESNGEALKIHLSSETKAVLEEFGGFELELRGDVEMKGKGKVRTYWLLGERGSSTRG

[3] = target: T2, NPRC (Homo sapiens, UniProt P17342); settings: cited from earlier work
T2 sequence (P17342 27-541): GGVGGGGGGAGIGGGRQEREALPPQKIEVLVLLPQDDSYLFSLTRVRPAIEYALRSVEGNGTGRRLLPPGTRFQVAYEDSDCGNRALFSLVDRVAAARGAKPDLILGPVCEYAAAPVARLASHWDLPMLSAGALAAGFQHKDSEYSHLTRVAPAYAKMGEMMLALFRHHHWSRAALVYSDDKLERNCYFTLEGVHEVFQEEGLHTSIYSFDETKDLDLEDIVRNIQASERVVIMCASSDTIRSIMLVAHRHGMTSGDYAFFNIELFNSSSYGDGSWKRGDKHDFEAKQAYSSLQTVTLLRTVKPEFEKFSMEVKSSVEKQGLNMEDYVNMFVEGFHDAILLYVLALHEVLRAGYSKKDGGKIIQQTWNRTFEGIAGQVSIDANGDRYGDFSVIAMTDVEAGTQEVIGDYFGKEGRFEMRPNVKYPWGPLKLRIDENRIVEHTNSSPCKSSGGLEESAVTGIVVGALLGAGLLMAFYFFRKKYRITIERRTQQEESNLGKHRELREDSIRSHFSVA

[4] = test system: cancer cells; settings: known natriuretic peptides; cited from earlier work

## AGAALSPL [Ala-8-Leu, ID NO:85]
[1]; peptide 0.01 μM
  Optical Densities in 96_Well Plate, Average: 0.937
  Optical Densities in 96_Well Plate: 0.744 and 0.878 and 1.000 and 0.892 and 1.169
[1]; peptide 0.03 μM
  Optical Densities in 96_Well Plate, Average: 0.976
  Optical Densities in 96_Well Plate: 0.892 and 0.937 and 0.989 and 0.921 and 1.139
[1]; peptide 0.1 μM
  Optical Densities in 96_Well Plate, Average: 0.991
  Optical Densities in 96_Well Plate: 0.832 and 1.006 and 1.031 and 0.910 and 1.174
[1]; peptide 0.3 μM
  Optical Densities in 96_Well Plate, Average: 1.002
  Optical Densities in 96_Well Plate: 0.784 and 0.802 and 0.998 and 1.357 and 1.070
[1]; peptide 1.0 μM
  Optical Densities in 96_Well Plate, Average: 0.985
  Optical Densities in 96_Well Plate: 0.732 and 1.216 and 0.954 and 0.834 and 1.189

## ANP: Natriuretic peptide; Table III sequence SLRRSSCFGGRMDRIGAQSGLGCNSFRY, SEQ ID NO:126 [reference compound]
[2]
  binding affinity at NPRA: higher binding affinities
[3]
  binding affinity at NPRC: higher binding affinities
[4]
  anticancer activity / relative potency: greater potency observed for ANP than CNP; also recorded: have anticancer activity
[1]; peptide 0.01 μM
  Optical Densities in 96_Well Plate, Average: 0.908
  Optical Densities in 96_Well Plate: 0.981 and 0.815 and 0.822 and 0.965 and 0.955
[1]; peptide 0.03 μM
  Optical Densities in 96_Well Plate, Average: 0.935
  Optical Densities in 96_Well Plate: 0.948 and 0.882 and 0.911 and 0.951 and 0.982
[1]; peptide 0.1 μM
  Optical Densities in 96_Well Plate, Average: 0.838
  Optical Densities in 96_Well Plate: 0.884 and 0.889 and 0.907 and 0.862 and 0.650
[1]; peptide 0.3 μM
  Optical Densities in 96_Well Plate, Average: 0.974
  Optical Densities in 96_Well Plate: 1.001 and 0.889 and 0.837 and 0.934 and 1.209
[1]; peptide 1.0 μM
  Optical Densities in 96_Well Plate, Average: 0.914
  Optical Densities in 96_Well Plate: 1.018 and 0.819 and 0.954 and 0.829 and 0.951

## EVVPPQVLSEPNEEAGAALSPLPEVPPWTGEVSPAQR [KT-220 (VDL), ID NO:125]
[4]
  anticancer activity / relative potency: have anticancer activity

## PNEEAGAALSPLPEV [Pro-15-Val, ID NO:121]
[1]; peptide 0.01 μM
  Optical Densities in 96_Well Plate, Average: 0.916
  Optical Densities in 96_Well Plate: 0.907 and 0.905 and 0.633 and 1.209 and 0.928
[1]; peptide 0.03 μM
  Optical Densities in 96_Well Plate, Average: 0.894
  Optical Densities in 96_Well Plate: 0.892 and 0.765 and 0.693 and 1.151 and 0.970
[1]; peptide 0.1 μM
  Optical Densities in 96_Well Plate, Average: 0.918
  Optical Densities in 96_Well Plate: 0.680 and 0.895 and 0.893 and 1.156 and 0.964
[1]; peptide 0.3 μM
  Optical Densities in 96_Well Plate, Average: 0.916
  Optical Densities in 96_Well Plate: 0.875 and 0.817 and 0.855 and 1.024 and 1.010
[1]; peptide 1.0 μM
  Optical Densities in 96_Well Plate, Average: 0.948
  Optical Densities in 96_Well Plate: 0.856 and 0.752 and 0.802 and 1.083 and 1.248

## RSSCAGAALSPLGAC [Arg-15-Cys, ID NO:122]
[1]; peptide 0.01 μM
  Optical Densities in 96_Well Plate, Average: 0.934
  Optical Densities in 96_Well Plate: 0.974 and 0.920 and 0.863 and 0.840 and 1.075
[1]; peptide 0.03 μM
  Optical Densities in 96_Well Plate, Average: 0.982
  Optical Densities in 96_Well Plate: 1.093 and 0.894 and 0.789 and 0.955 and 1.178
[1]; peptide 0.1 μM
  Optical Densities in 96_Well Plate, Average: 0.950
  Optical Densities in 96_Well Plate: 1.016 and 0.917 and 0.801 and 0.990 and 1.025
[1]; peptide 0.3 μM
  Optical Densities in 96_Well Plate, Average: 0.897
  Optical Densities in 96_Well Plate: 0.988 and 0.957 and 0.668 and 0.913 and 0.959
[1]; peptide 1.0 μM
  Optical Densities in 96_Well Plate, Average: 0.962
  Optical Densities in 96_Well Plate: 1.155 and 1.005 and 0.787 and 0.944 and 0.919

## RSSCFGGRIDRIGAC [C-ANP 4-23, ID NO:124, reference compound]
[4]
  anticancer activity / relative potency: have anticancer activity
[1]; peptide 0.01 μM
  Optical Densities in 96_Well Plate, Average: 0.938
  Optical Densities in 96_Well Plate: 0.877 and 0.971 and 0.953 and 0.932 and 0.958
[1]; peptide 0.03 μM
  Optical Densities in 96_Well Plate, Average: 0.932
  Optical Densities in 96_Well Plate: 0.905 and 0.882 and 0.981 and 0.948 and 0.943
[1]; peptide 0.1 μM
  Optical Densities in 96_Well Plate, Average: 0.942
  Optical Densities in 96_Well Plate: 0.758 and 1.027 and 0.983 and 0.960 and 0.982
[1]; peptide 0.3 μM
  Optical Densities in 96_Well Plate, Average: 0.942
  Optical Densities in 96_Well Plate: 0.840 and 0.928 and 1.035 and 0.975 and 0.932
[1]; peptide 1.0 μM
  Optical Densities in 96_Well Plate, Average: 0.925
  Optical Densities in 96_Well Plate: 0.865 and 0.925 and 0.900 and 0.955 and 0.981
